Source: patent US9763980B2, “Combined chemical modification of sphingosine-1-phosphate (S1P) and CXCR4 signalling pathways for hematopoietic stem cell (HSC) mobilization and engraftment” (Children's Medical Center Corporation, priority 2011, dated 2017)

Experiments:
acute viral myocarditis = details: mouse model for acute viral myocarditis; cited from earlier work
[1] = test system: experimental autoimmune encephalomyelitis (EAE); details: EAE in rats, a model for human multiple sclerosis; cited from earlier work
[2] = test system: brain inflammatory reaction following traumatic brain injury (TBI); details: rat model for brain inflammatory reaction following traumatic brain injury (TBI); cited from earlier work
atherosclerosis = details: mouse models for atherosclerosis; cited from earlier work
[3] = test system: CHT hematopoiesis (HSPC markers cmyb and runx1 in the CHT); experiment: Zebrafish embryo chemical treatment and dose matrices, whole mount in situ hybridization of cmyb/runx1 in the CHT; type: in vivo
Description: Transgenic zebrafish embryos were intercrossed and selected using epifluorescence (e.g. Runx1+23:EGFP, cmyb:EGFP^4, cd41:EGFP^2, kdrl:DsRed2^31). Live imaging was performed using a spinning disk confocal microscope with an incubated chamber. Zebrafish embryos were mounted and imaged as previously described. Live mouse fetal liver explants were prepared as previously described for aorta-gonad-mesonephros tissue^10. Image processing was done primarily with Fluorender^32 and ImageJ, which included the MTrackJ plugin^33 for manual cell tracking. For chemical screening and dose matrices, stage-matched AB embryos were dechorionated and arrayed 8-10/well in 96-well mesh-bottomed plates (Millipore). Embryos were treated from 48-72 hpf by placement directly in 96-well receiver plates containing small molecules diluted in E3 media+1% DMSO. Embryos were checked for circulation before fixation. Whole mount in situ hybridization was performed as previously described^34, with the addition of 0.2% glutaraldehyde to 4% formaldehyde at the post-fixation step. […] Lineage tracing was performed by injecting cd41:EGFP positive embryos with caged fluorescein conjugated to dextran (MW 10000). Embryos were uncaged in the DA at 28 hpf with a UV laser. Embryos were raised to 46 hpf in E3 media or E3+S1PR1 antagonist W146 (10 μM), then fixed for antibody staining to detect double positive cd41:EGFP and uncaged FITC HSPCs. Receptor fusion cDNAs (25 pg) were injected into one-cell embryos with Tol2 RNA (15 pg). Flow cytometry was performed using a LSR II and cells were sorted using a FACSAria (BD Biosciences). Flow cytometry data was analyzed using FACSDiva and FlowJo software.
Having followed newly born aortic HSPCs to the intermediate tissue, the inventors assessed the signaling pathways involved in embryonic migration. The inventors designed a chemical genetic screen to introduce small molecules to the zebrafish embryo from the peak window of HSPC migration to the CHT (48-72 hpf).

HSC = details: Massberg et al.; cited from earlier work
[4] = clinical trials; due to agonism of the S1P3 receptor; cited from earlier work
[5] = test system: airway inflammation and induction of bronchial hyperresponsiveness; details: mouse model for airway inflammation and induction of bronchial hyperresponsiveness; cited from earlier work
autoimmune myocarditis = details: rat model for autoimmune myocarditis; cited from earlier work
[6] = test system: systemic lupus erythematosus (SLE); details: mouse model for systemic lupus erythematosus (SLE); cited from earlier work
peripheral lymphocyte = details: in vivo; cited from earlier work
multiple sclerosis = details: cited from earlier work
[7] = test system: graft coronary artery disease and graft-versus-host disease (GVHD); details: mouse models for graft coronary artery disease and graft-versus-host disease (GVHD); cited from earlier work
[8] = test system: ischemia-reperfusion injury; details: mouse model for ischemia-reperfusion injury; cited from earlier work
autoimmune uveitis = details: rat model for autoimmune uveitis; cited from earlier work
[9] = test system: inflammatory bowel disease including colitis; details: mouse models for inflammatory bowel disease including colitis; cited from earlier work
atopic dermatitis = details: mouse model for atopic dermatitis; cited from earlier work
[10] = test system: progressive mesangioproliferative glomerulonephritis; details: rat model for progressive mesangioproliferative glomerulonephritis; cited from earlier work
rheumatoid arthritis = details: rat models for rheumatoid arthritis; cited from earlier work
asthma = details: mouse model for asthma; cited from earlier work
[11] = Phase II clinical trials, relapsing-remitting multiple sclerosis

In the case of `CCCCCCCCc1ccc(CCC(N)(CO)CO)cc1` [FTY720, 2-amino-2-[2-(4-octylphenyl)ethyl]propane-1,3-diol], the therapeutic efficacy (acute viral myocarditis) is listed as “therapeutic efficacy”, the therapeutic efficacy [1] is listed as “therapeutic efficacy” and the therapeutic efficacy [2] is listed as “therapeutic efficacy”. For the same compound, the therapeutic efficacy (atherosclerosis) was “therapeutic efficacy”, the “CHT score (greatest engraftment in dose matrix)” value ([3]; 15 μM AMD3100 and 5 μM FTY720) was “+2” and the HSC engraftment ([3]; 3:1 ratio of FTY720:AMD3100) was “promote and enhance HSC engraftment”. The “migration of HSC from the bone marrow” value ([3]; 5:1 ratio of FTY720:AMD3100) was “promote migration of HSC”, the “cmyb/runx1 expression in the CHT” value ([3]; FTY720 5 μM alone, treatment from 48 hpf, 72 hpf embryos) was “little effect” and the CHT hematopoiesis ([3]; FTY720 (5μM) combined with AMD3100 (15μM)) was “increase”. For the same compound, the CHT hematopoiesis ([3]; FTY720 with increased AMD3100 dose) was “greatly reduced”, the CHT hematopoiesis ([3]; combination of FTY720 and AMD3100 at specific combined doses (interaction matrix)) was “increased” and the “Experimental data: concentration of S1PR1 modulating agent in the combination effective at increasing HSC engraftment” value ([3]; combination with AMD3100) was 5 µM. For the same compound, the “Experimental data: concentration of S1PR1 modulating agent in the combination effective at increasing HSC mobilization” value ([3]; combination with AMD3100) was 5 μM FTY720, the “mobilization of HSC from the bone marrow in vivo” value ([3]; combination with AMD3100 in specific ratios) was “improves mobilization” and the CHT hematopoiesis ([3]; dose matrices, agent combined with AMD3100) was “synergistic increases”. The CHT hematopoiesis ([3]; each agent alone at the doses of the effective FTY720/AMD3100 combination) was “no effect”, the “HSC egress from tissues” value (HSC) was “blocked” and the adverse event [4] was “transient asymptomatic bradycardia”. For the same compound, the therapeutic efficacy [5] was “therapeutic efficacy”, the therapeutic efficacy (autoimmune myocarditis) was “therapeutic efficacy” and the therapeutic efficacy [6] was “therapeutic efficacy”. For the same compound, the “lymphopenia (peripheral lymphocyte lowering)” value (peripheral lymphocyte) was “rapidly and reversibly induce lymphopenia”, the clinical disease activity (multiple sclerosis; [11]) was “reduce” and the “number of lesions detected by magnetic resonance imaging (MRI)” value (multiple sclerosis; [11]) was “reduce”. For the same compound, the therapeutic efficacy (multiple sclerosis; multiple sclerosis, clinical trials) was “therapeutic efficacy”, the therapeutic efficacy [7] was “therapeutic efficacy” and the therapeutic efficacy [8] was “therapeutic efficacy”. The therapeutic efficacy (autoimmune uveitis) was “therapeutic efficacy”, the therapeutic efficacy [9] was “therapeutic efficacy” and the therapeutic efficacy (atopic dermatitis) was “therapeutic efficacy”. The therapeutic efficacy [10] was “therapeutic efficacy”, the therapeutic efficacy (rheumatoid arthritis) was “therapeutic efficacy” and the therapeutic efficacy (asthma) was “therapeutic efficacy”.
